Assay results: the NIST ThermoML archive (doi:10.1021/je9010568)

Legend:
[1] = φn = volume fraction of the nth substance listed; settings: Liquid, φ1 = 0.55
[2] = Liquid

CC(O)CO (centres undefined) [1,2-propanediol] + O
[1]
Settings | specific volume [m3/kg]
273.15 K, 100 kPa, Vibrating tube method | 0.0009499
274.15 K, 100 kPa, Vibrating tube method | 0.0009505
275.15 K, 100 kPa, Vibrating tube method | 0.000951
276.15 K, 100 kPa, Vibrating tube method | 0.0009516
277.15 K, 100 kPa, Vibrating tube method | 0.0009521
278.15 K, 100 kPa, Vibrating tube method | 0.0009527
279.15 K, 100 kPa, Vibrating tube method | 0.0009533
280.15 K, 100 kPa, Vibrating tube method | 0.0009539
281.15 K, 100 kPa, Vibrating tube method | 0.0009544
282.15 K, 100 kPa, Vibrating tube method | 0.000955
283.15 K, 100 kPa, Vibrating tube method | 0.0009556
284.15 K, 100 kPa, Vibrating tube method | 0.0009562
285.16 K, 100 kPa, Vibrating tube method | 0.0009568
286.16 K, 100 kPa, Vibrating tube method | 0.0009574
287.16 K, 100 kPa, Vibrating tube method | 0.0009579
287.99 K, 198800 kPa, Bellows volumetry | 0.0009078
288 K, 100100 kPa, Bellows volumetry | 0.0009305
288.03 K, 49500 kPa, Bellows volumetry | 0.0009439
288.04 K, 148900 kPa, Bellows volumetry | 0.0009188
288.11 K, 248600 kPa, Bellows volumetry | 0.0008977
288.11 K, 298400 kPa, Bellows volumetry | 0.0008885
288.12 K, 49600 kPa, Bellows volumetry | 0.0009432
288.12 K, 198700 kPa, Bellows volumetry | 0.000907
288.12 K, 348400 kPa, Bellows volumetry | 0.0008794
288.13 K, 100 kPa, Vibrating tube method | 0.0009585
288.13 K, 98100 kPa, Bellows volumetry | 0.0009301
288.13 K, 148600 kPa, Bellows volumetry | 0.0009182
288.16 K, 100 kPa, Vibrating tube method | 0.0009585
288.22 K, 249300 kPa, Bellows volumetry | 0.000897
288.3 K, 100900 kPa, Bellows volumetry | 0.0009295
288.31 K, 149300 kPa, Bellows volumetry | 0.0009178
288.31 K, 201100 kPa, Bellows volumetry | 0.0009066
288.31 K, 300500 kPa, Bellows volumetry | 0.0008875
288.31 K, 348700 kPa, Bellows volumetry | 0.0008793
288.32 K, 100 kPa, Vibrating tube method | 0.0009586
288.33 K, 49800 kPa, Bellows volumetry | 0.0009434
288.33 K, 249400 kPa, Bellows volumetry | 0.0008969
288.35 K, 350000 kPa, Bellows volumetry | 0.0008796
288.36 K, 299200 kPa, Bellows volumetry | 0.0008882
289.16 K, 100 kPa, Vibrating tube method | 0.0009591
290.16 K, 100 kPa, Vibrating tube method | 0.0009597
291.15 K, 100 kPa, Vibrating tube method | 0.0009603
292.15 K, 100 kPa, Vibrating tube method | 0.000961
293.15 K, 100 kPa, Vibrating tube method | 0.0009616
294.15 K, 100 kPa, Vibrating tube method | 0.0009622
295.15 K, 100 kPa, Vibrating tube method | 0.0009628
296.16 K, 100 kPa, Vibrating tube method | 0.0009634
297.16 K, 100 kPa, Vibrating tube method | 0.0009641
298.16 K, 100 kPa, Vibrating tube method | 0.0009647
299.16 K, 100 kPa, Vibrating tube method | 0.0009653
300.16 K, 100 kPa, Vibrating tube method | 0.000966
301.16 K, 100 kPa, Vibrating tube method | 0.0009666
302.16 K, 100 kPa, Vibrating tube method | 0.0009673
303.16 K, 100 kPa, Vibrating tube method | 0.0009679
304.16 K, 100 kPa, Vibrating tube method | 0.0009685
305.16 K, 100 kPa, Vibrating tube method | 0.0009692
306.16 K, 100 kPa, Vibrating tube method | 0.0009699
307.15 K, 100 kPa, Vibrating tube method | 0.0009705
308.15 K, 100 kPa, Vibrating tube method | 0.0009712
309.15 K, 100 kPa, Vibrating tube method | 0.0009719
310.15 K, 100 kPa, Vibrating tube method | 0.0009725
311.15 K, 100 kPa, Vibrating tube method | 0.0009732
312.15 K, 100 kPa, Vibrating tube method | 0.0009739
313.15 K, 100 kPa, Vibrating tube method | 0.0009746

CC(O)CO (centres undefined) [1,2-propanediol]
[2]
Settings | specific volume [m3/kg]
273.15 K, 100 kPa, Vibrating tube method | 0.0009519
274.15 K, 100 kPa, Vibrating tube method | 0.0009525
275.15 K, 100 kPa, Vibrating tube method | 0.0009532
276.15 K, 100 kPa, Vibrating tube method | 0.0009538
277.15 K, 100 kPa, Vibrating tube method | 0.0009544
278.15 K, 100 kPa, Vibrating tube method | 0.0009551
279.15 K, 100 kPa, Vibrating tube method | 0.0009557
280.15 K, 100 kPa, Vibrating tube method | 0.0009563
281.15 K, 100 kPa, Vibrating tube method | 0.000957
282.16 K, 100 kPa, Vibrating tube method | 0.0009576
283.16 K, 100 kPa, Vibrating tube method | 0.0009583
284.16 K, 100 kPa, Vibrating tube method | 0.0009589
285.16 K, 100 kPa, Vibrating tube method | 0.0009596
286.16 K, 100 kPa, Vibrating tube method | 0.0009602
287.16 K, 100 kPa, Vibrating tube method | 0.0009609
287.78 K, 298200 kPa, Bellows volumetry | 0.0008796
287.98 K, 348900 kPa, Bellows volumetry | 0.0008706
288.05 K, 100 kPa, Vibrating tube method | 0.0009615
288.05 K, 49200 kPa, Bellows volumetry | 0.0009434
288.1 K, 299700 kPa, Bellows volumetry | 0.0008829
288.11 K, 148700 kPa, Bellows volumetry | 0.0009148
288.12 K, 198400 kPa, Bellows volumetry | 0.0009035
288.12 K, 248700 kPa, Bellows volumetry | 0.0008932
288.14 K, 99900 kPa, Bellows volumetry | 0.0009277
288.15 K, 99300 kPa, Bellows volumetry | 0.000926
288.16 K, 100 kPa, Vibrating tube method | 0.0009616
288.17 K, 49000 kPa, Bellows volumetry | 0.0009425
288.17 K, 349200 kPa, Bellows volumetry | 0.0008746
288.2 K, 249300 kPa, Bellows volumetry | 0.0008891
288.21 K, 148200 kPa, Bellows volumetry | 0.0009125
288.22 K, 99800 kPa, Bellows volumetry | 0.0009279
288.24 K, 199500 kPa, Bellows volumetry | 0.0009
288.28 K, 149900 kPa, Bellows volumetry | 0.0009146
288.29 K, 250100 kPa, Bellows volumetry | 0.0008927
288.31 K, 100 kPa, Vibrating tube method | 0.0009617
288.31 K, 199600 kPa, Bellows volumetry | 0.0009031
288.31 K, 299900 kPa, Bellows volumetry | 0.0008834
288.32 K, 349100 kPa, Bellows volumetry | 0.000875
288.34 K, 100 kPa, Vibrating tube method | 0.0009617
288.38 K, 48800 kPa, Bellows volumetry | 0.0009437
289.16 K, 100 kPa, Vibrating tube method | 0.0009622
290.15 K, 100 kPa, Vibrating tube method | 0.0009629
291.15 K, 100 kPa, Vibrating tube method | 0.0009636
292.15 K, 100 kPa, Vibrating tube method | 0.0009643
293.15 K, 100 kPa, Vibrating tube method | 0.0009649
294.15 K, 100 kPa, Vibrating tube method | 0.0009656
295.15 K, 100 kPa, Vibrating tube method | 0.0009663
296.16 K, 100 kPa, Vibrating tube method | 0.000967
297.16 K, 100 kPa, Vibrating tube method | 0.0009677
298.16 K, 100 kPa, Vibrating tube method | 0.0009684
299.16 K, 100 kPa, Vibrating tube method | 0.0009691
300.16 K, 100 kPa, Vibrating tube method | 0.0009698
301.16 K, 100 kPa, Vibrating tube method | 0.0009705
302.16 K, 100 kPa, Vibrating tube method | 0.0009712
303.16 K, 100 kPa, Vibrating tube method | 0.0009719
304.15 K, 100 kPa, Vibrating tube method | 0.0009726
305.15 K, 100 kPa, Vibrating tube method | 0.0009733
306.15 K, 100 kPa, Vibrating tube method | 0.000974
307.15 K, 100 kPa, Vibrating tube method | 0.0009747
308.15 K, 100 kPa, Vibrating tube method | 0.0009754
309.15 K, 100 kPa, Vibrating tube method | 0.0009761
310.15 K, 100 kPa, Vibrating tube method | 0.0009769
311.15 K, 100 kPa, Vibrating tube method | 0.0009776
312.15 K, 100 kPa, Vibrating tube method | 0.0009783
313.15 K, 100 kPa, Vibrating tube method | 0.000979
